From patent US7169812B2, “Process for producing injectable gabapentin compositions” (Medtronic, Inc., priority 2003, dated 2007)
Entries after “also recorded” stand apart in the source; their conditions may differ.

Columns and labels:
[1] = test system: Crl:CD(SD)IGS BR rats; test: Intrathecal infusion toxicity study of heat-sterilized gabapentin solutions in rats (Day 1 to Day 29); assay type: in vivo; conditions: rat
Method: Rats were infused intrathecally with solutions containing varying concentrations of gabapentin.
Injectable solutions containing 80 mg/ml gabapentin were prepared and sterilized by heating to F0=24 as described in Example 1. The heat-sterilized 80 mg/ml gabapentin solutions were diluted in sterile water for injection, USP (Abbott Laboratories; North Chicago, Ill.) to prepare solutions at gabapentin concentrations of 1.67, 4.17, and 37.5 mg/ml as shown in Table 2.
Osmotic minipumps(ALZET® Model 2ML4) were filled with approximately 2 ml of sterile water for Groups 1 and 6 or approximately 2 ml of the appropriate test article preparation for Groups 2 through 5. All dose preparations were filtered using a 0.22 μm filter prior to filling the osmotic minipumps.
The animals were obtained from Charles River Laboratories; Raleigh, N.C.. The animals were cannulated by the supplier in the intrathecal space overlying the lumbar vertebrae. The cannulae consisted of 1.3 cm PE-10 tubing attached to a 7 cm piece of polyurethane tubing (0.025 ID×0.040 OD) with a total dead volume of approximately 23.5 μl. On Day 1 (staggered based on sex), the animals were anesthetized and one prefilled osmotic pump/animal was aseptically inserted subcutaneously on the animal's dorsum. The cannula was filled with sterile water or test article preparation, as appropriate, and the pumps were connected to the intrathecal cannulae. Beginning on Day 1, animals were dosed 24 hours/day at a dose volume of approximately 60.96 μl/day via intrathecal infusion using the osmotic minipump through necropsy on Day 29. At initiation of dosing, the animals were 8 to 9 weeks old, and their body weights ranged from 264 g to 340 g for the males and 191 g to 264 g for the females.
Assessment of toxicity was based on mortality, clinical observations, ophthalmic examinations, body weights, food consumption, clinical pathology, and anatomic pathology. Ophthalmic examinations were performed prior to initiation of treatment and during week 4. An indirect ophthalmoscopy examination was done to include, but was not limited to, a cursory examination of the adnexa and anterior structures of the globe (e.g.,cornea, anterior chamber, lens) and a detailed examination of the ocular fundus. Body weights were taken prior to treatment, on Day 1, and weekly thereafter. Food consumption was measured weekly. At scheduled sacrifices, samples were taken for hematology, coagulation, and clinical chemistry. When possible, blood was collected from animals sacrificed at an unscheduled interval. Tissues were taken from each animal in groups 1 and 4 and each animal sacrificed at an unscheduled interval. Spinal cords were harvested from each animal in Groups 2, 3, and 5. The tissues and spinal cords were processed and examined microscopically. Macroscopic lesions were processed and examined microscopically from animals in Groups 2, 3, and 5. Sections of spinal cord from each animal in Groups 1 and 4 were embedded in paraffin, sectioned, and stained with luxol fast blue, and examined microscopically. Immunohistochemistry of spinal cord sections in paraffin from each animal in Groups 1 and 4 were sectioned, stained with anti-glial acidic fibrillary protein (Dako; Carpinteria, Calif.); rabbit IgG from Vector Laboratories; Burlingame, Calif. was used as a negative control), and examined. […]

[2] = Tonicity of gabapentin dissolved in water; assay type: physicochemical; conditions: dissolved in water at 80 mg/ml
Text: In an embodiment, the invention provides an injectable composition comprising gabapentin, where the composition is substantially isotonic with a physiological fluid of a subject. For example, the injectable solution may be isotonic with a subject's blood or cerebrospinal fluid. Cerebrospinal fluid typically has a tonicity of about 305 mOsm. Accordingly, an embodiment of the invention provides an injectable gabapentin composition having a tonicity of about 290 mOsm to about 320 mOsm. If an injectable composition comprising gabapentin has a tonicity lower than about 290 mOsm to about 320 mOsm, the tonicity may be enhanced by adding a tonicity enhancing agent, such as sodium chloride. As used herein, “tonicity enhancing agent” means a compound or composition that increases tonicity of a composition. However, such tonicities of between about 290 mOsm to about 320 mOsm are not always achievable with gabapentin compositions. For example, gabapentin dissolved in water at a concentration of 80 mg/ml has a tonicity of about 500 mOsm. When the concentration of gabaentin in an injectable composition renders the composition hypertonic relative to a subject's physiological fluid, it is preferred that little or no amount of a tonicity enhancing agent be added to the composition. […]

[3] = test system: mouse; conditions: cited from earlier work
[4] = water; basic and acidic aqueous solutions; cited from earlier work

For `NCC1(CC(=O)O)CCCCC1` [gabapentin, 1-(aminomethyl)cyclohexane acetic acid], the “Overall toxicity / tolerability” value ([1]; continuous intrathecal infusion, 0.10, 0.25, 2.25 and 4.8 mg/day, solutions heated to F0=24, acetic acid) was “no toxic effects attributable to the infused solutions were observed; also recorded: well tolerated and non-toxic”, the “Glial fibrillary acidic protein immunostaining of spinal cord sections” value ([1]; control vs high-dose group (4.8 mg/day)) was “no significant variation” and the “Organ weight differences, macroscopic observations, microscopic observations” value ([1]; intrathecal) was “no test article-related organ weight differences, macroscopic observations, or microscopic observations”. The “Effects on clinical observations, body weights, body weight changes, food consumption, ophthalmic observations, clinical or anatomic pathology observations” value ([1]; intrathecal, 0.10-4.8 mg/day) was “No clear effects were observed”, the “Effect on clinical pathology test results” value ([1]; intrathecal, terminally sterilized by heat) was “no obvious or adverse effect” and the Tonicity [2] was “about 500 mOsm”. The “toxicity (LD50, mouse)” value [3] was “more than 8000 mg/kg” and the Solubility [4] was “freely soluble”.
